Results published in patent publication US8440628B2, “Medical compositions containing ghrelin” (Daiichi Sankyo Company, Limited, priority 2002, dated 2013).

Columns and labels:
[1] = Stability of human ghrelin in 0.1M HCl and Mcllvain buffer solutions of various pH at 25°C (Example 2, HPLC peak area ratio); format: physicochemical; conditions: human ghrelin 0.5 mg/mL in Mcllvain buffer
Description: Human ghrelin was dissolved in the following aqueous solutions in the concentration of about 0.15 μmol/mL (0.5 mg/mL).
0.1M HCl aqueous solution (pH: 1.1)
The pH was adjusted with 0.1M citric aqueous acid and 0.2M dibasic sodium phosphate aqueous solution.
Each solution were stored at 25±2° C. for 8, 24, 48 and 72 hours respectively, and the obtained solutions were detected by HPLC analysis in comparison to the solutions before storage. […] No significant changes of pH in solution before storage and after storage were observed.

[2] = Stability of human ghrelin in Britton-Robinson buffer solutions of various pH at 40°C (Example 3); format: physicochemical; conditions: pH of 3.1, 4.0, 5.0 and 6.0, 40±1°C, storage time not stated, target value 85%
Description: Human ghrelin, which is one of the ghrelins, was dissolved in the Britton-Robinson buffer solutions which is adjusted by combining 0.04M phosphoric acid-acetic acid-boric acid aqueous solution and 0.2M sodium hydrate aqueous solution in appropriate ratio, having pH of 2.1, 3.1, 4.0, 5.0, 6.0, 7.0 and 7.9 to obtain an aqueous solution containing human ghrelin in the concentration of about 0.15 μmol/mL (0.5 mg/mL). The obtained solution was filled in brownish glass ampoules and the ampoules were sealed with fire. For the calculation of kinetic constant, the certain degrees of degradation products have to be occurred in the aqueous solution of the ghrelins, and therefore, the ampoules were stored at 40±1° C., which was severe conditions for storage. The concentration (residual ratio) of human ghrelin was conducted by HPLC with time. At the same time, the pH of the solution was measured and it was confirmed that there was no significant changes of pH in solution.
The kinetic constants in each pH solution were calculated from the sequential change of the residual ratio, and the results were shown in FIG. 2.

[3] = Stability of human ghrelin in pH-adjusted purified water at 25°C (Example 7); format: physicochemical; conditions: for Peak area ratio to total peak area: 25±2°C
Description: Human ghrelin was dissolved in the purified water with about 0.03 μmol/mL (0.1 mg/mL). […] This solution was divided into quarter, and one portion was kept alone and the pH values of the remaining three portions were adjusted to pH 1.8 (with 17 mM of hydrochloric acid), pH 3.9 (with 0.20 mM of hydrochloric acid) and pH 7.8 (with 0.24 mM of sodium hydroxide) respectively, by adding along with hydrochloric acid or sodium hydroxide aqueous solution.

[4] = Adsorption inhibiting effect of anti-adsorbents on human ghrelin in glass and polypropylene test tubes (Example 9); format: physicochemical; conditions: human ghrelin 1.0 μg/mL in 5% mannitol-0.05M glycine hydrochloride buffer (pH 3.5), anti-adsorbent None (control)
Description: As the anti-adsorbent, the surfactant, that is, polyoxyethylene sorbitan monooleate (hereinafter, referred to as Tween® 80), and benzalkonium chloride were selected.
The anti-adsorbent was added to this solution with 0.01% or 0.1% concentration.
The human ghrelin concentrations of each solution were measured by HPLC method right after preparation, and these solutions were replaced in glass test tubes. After that, each solution were further replaced in new glass test tubes, and same operation was repeated for 5 and 10 times, then, the human ghrelin concentrations of each treated solution were measured by HPLC method. As a control, the solution not containing anti-adsorbent was examined.
Same procedure was repeated by using test tube made by polypropylene instead of glass test tube.

[5] = Lyophilized powder for in situ preparation: solubility, content and pH after redissolving (Example 11); conditions: solution just after preparation, before lyophilization
Description: Human ghrelin was dissolved in 5% mannitol-0.05M glycine hydrochloride buffer solution (pH 3.5) with about 0.3 nmol/mL (1.0 μg/mL) concentration, and the human ghrelin concentration of this solution just after preparation was measured by HPLC method, and pH value of this solution was also measured. […] Then, this solution was lyophilized at −25° C. for 24 hours in vacuo, and the obtained powder was further dried at 20° C. for 24 hours in vacuo.

- pH observed ([1]; pH 6, 25±2°C, 8 hr. after): 6.0
- Peak area ratio to total peak area ([1]; pH 6, 25±2°C, 24 hr. after): 98.28%
- pH observed ([1]; pH 6, 25±2°C, 24 hr. after): 6.0
- Peak area ratio to total peak area ([1]; pH 6, 25±2°C, 48 hr. after): 97.64%
- pH observed ([1]; pH 6, 25±2°C, 48 hr. after): 6.0
- Peak area ratio to total peak area ([1]; pH 6, 25±2°C, 48 hr. after, listed as human ghrelin): less than 98%
- Peak area ratio to total peak area ([1]; pH 6, 25±2°C, 72 hr. after): 96.92%
- pH observed ([1]; pH 6, 25±2°C, 72 hr. after): 6.0
- Peak area ratio to total peak area ([1]; pH 6, 25±2°C, before storage): 99.07%
- pH observed ([1]; pH 6, 25±2°C, before storage): 6.0
- Peak area ratio to total peak area ([1]; pH 7, 25±2°C, 8 hr. after): 98.15%
- pH observed ([1]; pH 7, 25±2°C, 8 hr. after): 7.0
- Peak area ratio to total peak area ([1]; pH 7, 25±2°C, 24 hr. after): 96.18%
- pH observed ([1]; pH 7, 25±2°C, 24 hr. after): 7.0
- Peak area ratio to total peak area ([1]; pH 7, 25±2°C, 24 hr. after, listed as human ghrelin): less than 98%
- Peak area ratio to total peak area ([1]; pH 7, 25±2°C, 48 hr. after): 93.44%
- pH observed ([1]; pH 7, 25±2°C, 48 hr. after): 7.0
- Peak area ratio to total peak area ([1]; pH 7, 25±2°C, 72 hr. after): 90.75%
- pH observed ([1]; pH 7, 25±2°C, 72 hr. after): 7.0
- Peak area ratio to total peak area ([1]; pH 7, 25±2°C, before storage): 98.97%
- pH observed ([1]; pH 7, 25±2°C, before storage): 7.0
- Peak area ratio to total peak area ([1]; pH 8, 25±2°C, 8 hr. after): 94.73%
- pH observed ([1]; pH 8, 25±2°C, 8 hr. after): 7.9
- Peak area ratio to total peak area ([1]; pH 8, 25±2°C, 24 hr. after): 87.32%
- pH observed ([1]; pH 8, 25±2°C, 24 hr. after): 7.9
- Peak area ratio to total peak area ([1]; pH 8, 25±2°C, 48 hr. after): 76.95%
- pH observed ([1]; pH 8, 25±2°C, 48 hr. after): 7.9
- Peak area ratio to total peak area ([1]; pH 8, 25±2°C, 72 hr. after): 68.30%
- pH observed ([1]; pH 8, 25±2°C, 72 hr. after): 7.9
- Peak area ratio to total peak area ([1]; pH 8, 25±2°C, before storage): 98.61%
- pH observed ([1]; pH 8, 25±2°C, before storage): 8.0
- Residual ratio [2]: more than 87%
- Peak area ratio to total peak area ([3]; human ghrelin 0.1 mg/mL in purified water adjusted to pH 1.8 with hydrochloric acid, 1 day after): 97.68%
- Peak area ratio to total peak area ([3]; human ghrelin 0.1 mg/mL in purified water adjusted to pH 1.8 with hydrochloric acid, 1 day after, listed as human ghrelin): less than 98%
- Peak area ratio to total peak area ([3]; human ghrelin 0.1 mg/mL in purified water adjusted to pH 1.8 with hydrochloric acid, 3 days after): 95.01%
- Peak area ratio to total peak area ([3]; human ghrelin 0.1 mg/mL in purified water adjusted to pH 1.8 with hydrochloric acid, before storage): 99.16%
- Peak area ratio to total peak area ([3]; human ghrelin 0.1 mg/mL in purified water adjusted to pH 3.9 with hydrochloric acid, 1 day after): 99.19%
- Peak area ratio to total peak area ([3]; human ghrelin 0.1 mg/mL in purified water adjusted to pH 3.9 with hydrochloric acid, 3 days after): 99.14%
- Peak area ratio to total peak area ([3]; human ghrelin 0.1 mg/mL in purified water adjusted to pH 3.9 with hydrochloric acid, before storage): 99.21%
- Peak area ratio to total peak area ([3]; human ghrelin 0.1 mg/mL in purified water adjusted to pH 7.8 with sodium hydroxide, 1 day after): 94.78%
- Peak area ratio to total peak area ([3]; human ghrelin 0.1 mg/mL in purified water adjusted to pH 7.8 with sodium hydroxide, 1 day after, listed as human ghrelin): less than 98%
- Peak area ratio to total peak area ([3]; human ghrelin 0.1 mg/mL in purified water adjusted to pH 7.8 with sodium hydroxide, 3 days after): 87.84%
- Peak area ratio to total peak area ([3]; human ghrelin 0.1 mg/mL in purified water adjusted to pH 7.8 with sodium hydroxide, before storage): 98.85%
- Peak area ratio to total peak area ([3]; human ghrelin 0.1 mg/mL in purified water, pH 4.7 (not adjusted), 1 day after): 99.12%
- Peak area ratio to total peak area ([3]; human ghrelin 0.1 mg/mL in purified water, pH 4.7 (not adjusted), 3 days after): 98.94%
- Peak area ratio to total peak area ([3]; human ghrelin 0.1 mg/mL in purified water, pH 4.7 (not adjusted), before storage): 99.20%
- pH of the solution ([3]; human ghrelin dissolved in purified water, about 0.03 μmol/mL (0.1 mg/mL)): 4.7
- Human ghrelin concentration of the solution (Initial Conc. = 100) ([4]; Glass tube, replaced 5 times): 0
- Human ghrelin concentration of the solution (Initial Conc. = 100) ([4]; Glass tube, replaced 10 times): 0
- Human ghrelin concentration of the solution (Initial Conc. = 100) ([4]; Initial Conc.): 100
- Human ghrelin concentration of the solution (Initial Conc. = 100) ([4]; Polypropylene tube, replaced 5 times): 51
- Human ghrelin concentration of the solution (Initial Conc. = 100) ([4]; Polypropylene tube, replaced 10 times): 19
- pH value of the solution [5]: 3.5
SMILES: CCCCCCCC(=O)OC[C@H](NC(=O)[C@H](CO)NC(=O)CN)C(=O)N[C@@H](Cc1ccccc1)C(=O)N[C@@H](CC(C)C)C(=O)N[C@@H](CO)C(=O)N1CCC[C@H]1C(=O)N[C@@H](CCC(=O)O)C(=O)N[C@@H](Cc1c[nH]cn1)C(=O)N[C@@H](CCC(N)=O)C(=O)N[C@@H](CCCNC(=N)N)C(=O)N[C@H](C(=O)N[C@@H](CCC(N)=O)C(=O)N[C@@H](CCC(N)=O)C(=O)N[C@@H](CCCNC(=N)N)C(=O)N[C@@H](CCCCN)C(=O)N[C@@H](CCC(=O)O)C(=O)N[C@@H](CO)C(=O)N[C@@H](CCCCN)C(=O)N[C@@H](CCCCN)C(=O)N1CCC[C@H]1C(=O)N1CCC[C@H]1C(=O)N[C@@H](C)C(=O)N[C@@H](CCCCN)C(=O)N[C@@H](CC(C)C)C(=O)N[C@@H](CCC(N)=O)C(=O)N1CCC[C@H]1C(=O)N[C@@H](CCCNC(=N)N)C(=O)O)C(C)C [Human ghrelin]
